Laboratory results reported in patent publication US20070196816A1, “Engineered stimulus-responsive switches” (priority 2000, published 2007).

Experiments:
lambda phage = assay: Immunity experiments: plaque formation on lambda phage infection of LE392 cells containing engineered repressors, with and without taxol; format: cell-based; conditions: 30° C., scored at 24 and 48 hours
Description: There are multiple ways to evaluate lambda repressor function. One such method exploits the central role of the repressor in controlling the decision of lambda phage to enter the lytic or the lysogenic phase. In the presence of a high concentration of functional cI in the bacterial cell, entering lambda phage are pushed into the lysogenic phase. In the absence of cI, bacteria are susceptible to infection by lambda phage: the lysed cells manifest as plaques on a bacterial lawn. The level of functional cI in a cell determines whether incoming phage will continue to enter the lytic cycle or choose the lysogenic cycle, when the phage is integrated into the host genome. Cells with functional cI can thus display immunity to phage superinfection. In addition it is also possible to conduct in vitro experiments, such as electrophoretic mobility shift assays where binding of purified protein to labeled oligonucleotide duplexes can be monitored.
The repressors were placed under the control of a constitutive promoter (tet promoter) in a pUNI (Invitrogen) donor vector. […]
Five sets of experiments have been done with each of the cI-bZIP, TBD-cI-bZIP, and TBD-ΔK-cI-bZIP constructs. […] Plaque phenotype was scored at 24 and 48 hours of incubation at 30° C. The number of plaques was counted for three experiments using 3-5 replicates for each set.

GST-Bcl2 = GST-Bcl2 (Homo sapiens, UniProt P10415); conditions: specific binding; Rodi et al.; cited from earlier work
GST-Bcl2, sequence (P10415 whole entry): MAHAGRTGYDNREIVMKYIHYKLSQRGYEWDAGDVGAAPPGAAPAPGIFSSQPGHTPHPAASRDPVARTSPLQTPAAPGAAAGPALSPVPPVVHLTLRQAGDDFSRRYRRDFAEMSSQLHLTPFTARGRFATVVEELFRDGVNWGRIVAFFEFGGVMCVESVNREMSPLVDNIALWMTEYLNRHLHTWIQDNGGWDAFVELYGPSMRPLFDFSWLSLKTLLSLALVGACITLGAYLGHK

| Compound | Change of plaque phenotype/size on addition of taxol (lambda phage; 100 uM taxol in culture and top agar) | Plaque phenotype (size) on infection with lambda phage (lambda phage; LE392 cells containing the repressor, absence of taxol) | Kd of taxol binding to GST-Bcl2 (GST-Bcl2) |
| --- | --- | --- | --- |
| cI-bZIP: chimeric repressor: DNA binding domain and linker of lambda repressor (cI aa 1-132) fused to GCN4 leucine zipper; SEQ ID NO: 12 | not changed | miniscule plaques barely visible to the eye | – |
| CC(=O)O[C@H]1C(=O)[C@@]2(C)[C@H]([C@H](OC(=O)c3ccccc3)[C@]3(O)C[C@H](OC(=O)[C@H](O)[C@@H](NC(=O)c4ccccc4)c4ccccc4)C(C)=C1C3(C)C)[C@]1(OC(C)=O)CO[C@@H]1C[C@@H]2O [taxol] | – | – | nanomolar range |
